The nature of this data set: gradient 5% acetonitrile 3 min, to 50% in 2 min, to 85% in 15 min, held 3 min, 100 µL/min. Conditions: column: Zorbax Extend-C18 2.1 x 50 mm; eluents: water / acetonitrile, 0.1% formic acid. In a few lines: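 Each retention time is based on an adduct peak selected computationally and verified by manual inspection. Measurements used HPLC–quadrupole time-of-flight mass spectrometry in positive and negative ionization mode on mixtures of ~100 pure standards. Chromatography ran on a Zorbax Extend-C18 column (2.1 × 50 mm, 1.8 μm) at 100 μL/min with water and acetonitrile, each containing 0.1% formic acid, and dead and dwell volumes of 40 μL and 900 μL.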
With `COc1ccc(C(=O)N2CC(N3CC(C(=O)N4CCCC4)CC3=O)C2)cc1F` (stereo not drawn), the RP-LC retention time turned out to be 639 s. `CCn1cc(-c2ccc(Cl)cc2)cc1C(=O)N1CCC2(CC1)OCCO2` displayed an RP-LC retention time of 1040 s. In the case of `CCn1cc2c3c(cccc31)CN(C(=O)Nc1ccc(Cl)cc1F)CC2` it was 1050 s. `CCNc1cc(N2CCC(CCC(=O)NCc3cc(F)ccc3F)CC2)ncn1` yielded an RP-LC retention time of 666 s. Under `O=C1CC(c2nc(-c3cccc(Cl)c3)no2)CN1c1ccc(F)cc1` (stereo not drawn) stands 1030 s; under `COc1cccc(Cn2ccn3nc(-c4ccc(OC)c(OC)c4)cc3c2=O)c1`, 916 s; under `CN1C(=O)c2cccn2CC1CNS(=O)(=O)c1ccc(F)cc1` (stereo not drawn), 679 s. Under `O=C(Nc1ccccc1)C1CCN(C(=O)C2Sc3ccccc3NC2=O)CC1` (stereo not drawn) stands 731 s; under `Cc1ccc(N2CCC(NC(=O)c3cccc(C#N)c3)C2=O)cc1` (stereo not drawn), 813 s; under `CN1CCC(NC(=O)c2ccc(-n3cc(CNC(=O)C4CCC4)cn3)cc2)CC1`, 585 s. Consider `CCn1nc(-c2ccccc2)c(-c2ccccc2)c(C(=O)OC)c1=O`, for which the RP-LC retention time was 973 s. In the case of `O=C(Cn1cc(-c2ccccc2)c2ncn(C3CC3)c(=O)c21)NCc1ccc2c(c1)OCO2` it was 852 s; in that of `CCOC(=O)c1cnc2nc(C)ccc2c1Nc1ccc(S(N)(=O)=O)cc1`, 589 s. Under `O=C(CC1CCN(S(=O)(=O)c2ccc(Cl)s2)CC1)N1CCN(c2ncccn2)CC1` stands 872 s. In the case of `O=C(c1ccoc1)N1CC(n2cc(COCc3ccccc3)nn2)C1` it was 734 s; in that of `COc1ccc(C(=O)N2CCCC(c3nnc(-c4ccccc4)o3)C2)cc1` (stereo not drawn), 804 s. Molecule `O=C(Nc1cccc(F)c1)C1CC(=O)N(CCc2c[nH]c3ccc(F)cc23)C1` (stereo not drawn) registered an RP-LC retention time of 799 s. `CCc1ccc(NC(=O)N2CCC(n3cnc4cc(Cl)ccc4c3=O)CC2)cc1` yielded an RP-LC retention time of 877 s. `CCn1cc(-c2nc(C)c(C(=O)Nc3ccccc3OC)s2)c2cccnc21`: the RP-LC retention time was found to be 1120 s. Under `Cc1cc(C)cc(C(=O)NCCc2nc3cccnc3n2C(C)C)c1` stands 744 s; under `Cc1ccc(N2CC(c3noc(-c4ccc(C)cc4C)n3)CC2=O)cc1` (stereo not drawn), 1190 s. The molecule `COCCN(C)C(=O)c1cn(C2CN(S(=O)(=O)c3cn(C)cn3)C2)nn1` had an RP-LC retention time of 585 s. `COC(=O)c1sccc1NC(=O)N1CCCC1c1nc(-c2cccc(Cl)c2)no1` (stereo not drawn) displayed an RP-LC retention time of 1220 s. `CCc1cccc(C)c1N(C(=O)CSCc1nc2ccccc2[nH]1)C(C)COC` (stereo not drawn) yielded an RP-LC retention time of 635 s. For the molecule `CC1CCCCN1CCCNC(=O)C1CCN(c2nc3cccnc3s2)CC1` (stereo not drawn), the RP-LC retention time came out at 587 s. With `Cc1ccc(-c2noc(Cn3nc(-c4ccccc4)ccc3=O)n2)cc1`, the RP-LC retention time stood at 1080 s. On to `Cc1cccc(NC(=O)Nc2c(-c3ccc(F)cc3)nc3ccccn23)c1`, for which the RP-LC retention time amounted to 695 s. In the case of `CC(C)C(=O)Nc1cnc(-c2ccc(F)cc2)nc1` it was 861 s; in that of `CCCc1cc(N2CCN(C(=O)Cc3ccsc3)CC2)nc2nnc(C)n12`, 627 s. `CC(C)N1C(=O)c2cccnc2Sc2cc(NC(=O)Cc3ccc(F)cc3)ccc21` returned an RP-LC retention time of 867 s. The molecule `CCCCc1ccc(NC(=O)CSc2cc(N3CCC(C(=O)NCC)CC3)ncn2)cc1` displayed an RP-LC retention time of 871 s. `CC(C)CCn1nc2ccc(S(=O)(=O)N3CCOCC3)cn2c1=O`: the RP-LC retention time came to 801 s. In the case of `Cc1nc(C2CCCCN2C(=O)c2ccco2)n[nH]1` (stereo not drawn) it was 593 s.

(Values after the METLIN SMRT retention time set (Domingo-Almenara et al. 2019).)
